The test concerns SK-BR-3. The experiment in a line: Cytotoxicity against human SK-BR-3 cells after 48 hrs by MTT assay. The test is classed as functional, cell-based. The note with it: SK-BR-3, 48 h. In general terms: Tetrazolium dyes change colour on reduction, which living cells bring about.

The term IC50 denotes the concentration that inhibits the measured activity by half. Low readings indicate greater potency, high ones weaker potency. Consider `CC(=O)O[C@@H](CC1=C(O)C(=O)OC1)[C@]1(C)[C@H]2CCC=C(C)[C@]2(C)[C@@H](OC(=O)c2ccccc2)[C@H](OC(=O)c2ccccc2)[C@]1(C)O` (mixture of isomers) [SCUTEBATA A], for which the IC50 came to 15.2 µM.

The record behind these values is ChEMBL document CHEMBL1154895, “Cytotoxic neoclerodane diterpenoids from Scutellaria barbata” (J Nat Prod, 2010).
